Read-outs that look alike come from different tables or passages of the source.
[1] = 1M storage, table does not say which condition (30° C./65% or 40° C./75% RH)
[2] = 2M storage, table does not say which condition (30° C./65% or 40° C./75% RH)
[3] = 3M storage, table does not say which condition (30° C./65% or 40° C./75% RH)
[4] = 6M storage, table does not say which condition (30° C./65% or 40° C./75% RH)
[5] = 9M storage, table does not say which condition (30° C./65% or 40° C./75% RH)

In the case of `C#Cc1cccc(Nc2ncnc3cc(OCCOC)c(OCCOC)cc23)c1.Cl` [Form SEA, N-(3-ethynylphenyl)-6,7-bis (2-methoxy ethoxy)-4-quinazolinamine hydrochloride], the “Assay (by HPLC; on anhydrous basis)” value [1] is reported as 99.19% w/w, the “Moisture Content (by KF method)” value [1] is reported as 0.24% w/w and the “Assay (by HPLC; on anhydrous basis)” value [2] is reported as 101.56% w/w. The “Moisture Content (by KF method)” value [2] was 0.26% w/w, the “Assay (by HPLC; on anhydrous basis)” value [3] was 101.41% w/w and the “Moisture Content (by KF method)” value [3] was 0.21% w/w. For the same compound, the “Assay (by HPLC; on anhydrous basis)” value [4] was 99.99% w/w, the “Moisture Content (by KF method)” value [4] was 0.17% w/w and the “Assay (by HPLC; on anhydrous basis)” value [5] was 100.40% w/w. The “Moisture Content (by KF method)” value [5] was 0.42% w/w, the “HPLC purity after 9 months stability” value (9 months) was “exceeding 99.8 % w/w by HPLC” and the “Assay (by HPLC; on anhydrous basis)” value (Initial, limit >99.8%) was 100.84% w/w. The “Moisture Content (by KF method)” value (Initial, limit not more than 0.5% w/w) was 0.17% w/w, the “time over which the crystalline form was stable under storage” value (storage at 30° C./65±5%) was “up to 12 months” and the “time over which the crystalline form was stable under storage” value (storage at 40° C./75±5%) was “up to 12 months”.

Reference: US20220235014A1, “PROCESS FOR THE PREPARATION OF HIGHLY PURE ERLOTINIB HYDROCHLORIDE” (SHIVALIK RASAYAN LIMITED, priority 2021, published 2022)
